Among the test systems are NCI-H226; HCT-116; NCI-H23; UO-31; LOX IMVI; HOP-62; COLO 205; SF-539; OVCAR-4; SF-268; SF-295; HL-60; SK-MEL-2; CAKI-1; SR; KM12; RXF 393.
Assay in all cases: inhibition of tumour cell growth, NCI panel, 48 h

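Compound exposure: 48 hours, 5 concentrations, 96-well plates. GI50: concentration for 50% inhibition of growth.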 Active and inactive are the calls of the source. Rule as the data show it: active = GI50 up to about 1.1 µM and inactive = higher.

From ChEMBL document CHEMBL1201862, “PubChem BioAssay data set” (2004) come the findings set out here.

With `CCC1=C(CC)C1(C#N)[N+](=O)[O-]`, the GI50 with NCI-H226, with HCT-116, with NCI-H23, in the test with UO-31, with LOX IMVI and in the test on HOP-62 was > 100 µM (inactive) in each case. The GI50 with COLO 205, in the test with SF-539, in the test with OVCAR-4, in the test with SF-268, with SF-295 and with HL-60 was > 100 µM (inactive) throughout. In addition, the GI50 with SK-MEL-2, with CAKI-1, with SR and in the test with KM12 was > 100 µM (inactive) each time.
In the case of `CC(C)c1cccc(C(C)C)c1NC(=O)CCC(=O)NN`, the GI50 is > 100 µM (inactive) in the test on NCI-H226; 66.4 µM (inactive) with HCT-116; > 100 µM (inactive) in the test on NCI-H23; > 100 µM (inactive) in the test with UO-31; > 100 µM (inactive) in the test on HOP-62; 19.6 µM (inactive) with COLO 205. Also, the GI50 with SF-539, in the test on OVCAR-4, in the test on SF-268, in the test with SF-295, in the test on HL-60 and in the test with CAKI-1 was > 100 µM (inactive) throughout. Also, in the test on KM12, the GI50 was > 100 µM (inactive).
In the case of `O=C(CC/C(CC(=O)c1ccc(Cl)cc1)=N\O)Nc1cccc(Cl)c1`, the GI50 in the test with NCI-H23, in the test with UO-31, with LOX IMVI, with HOP-62, in the test with COLO 205 and in the test on SF-539 was > 100 µM (inactive) throughout. The GI50 in the test on OVCAR-4, in the test with SF-268, in the test with SF-295, with SK-MEL-2, with CAKI-1 and with KM12 was > 100 µM (inactive) in each case.
`COc1cc([C@@H]2c3cc4c(cc3[C@@H](NCc3cccc(C#N)c3)C3COC(=O)[C@@H]32)OCO4)cc(OC)c1O` (stereo partly drawn): the GI50 was 2.34 µM (inactive) with RXF 393; 0.225 µM (active) in the test with NCI-H226; 2.12 µM (inactive) with HCT-116; 0.428 µM (active) in the test with NCI-H23; 2.22 µM (inactive) in the test with UO-31; 1.27 µM (inactive) in the test with LOX IMVI. Also, the GI50 was 0.439 µM (active) with HOP-62; 2.99 µM (inactive) in the test on COLO 205; 0.326 µM (active) in the test with SF-539; 68.7 µM (inactive) in the test on OVCAR-4; 2.22 µM (inactive) in the test on SF-268; 0.925 µM (active) in the test with SF-295. For the same compound, the GI50 is 0.149 µM (active) in the test on HL-60, 3.77 µM (inactive) with SK-MEL-2, 1 µM (active) in the test on CAKI-1 and 1.62 µM (inactive) in the test with KM12.
As to `Cc1cc(=O)n(-c2c(C)cccc2Cl)c(/C=C(\O)c2ccncc2)n1`, the GI50 is > 100 µM (inactive) in the test on RXF 393; > 100 µM (inactive) in the test with NCI-H226; > 100 µM (inactive) with HCT-116; > 100 µM (inactive) in the test with NCI-H23; 35.3 µM (inactive) with UO-31; > 100 µM (inactive) in the test on LOX IMVI. In addition, the GI50 in the test on HOP-62, in the test with COLO 205, in the test on SF-539, with OVCAR-4, with SF-268 and with SF-295 was > 100 µM (inactive) in each case. Besides, the GI50 in the test with HL-60 is 6.21 µM (inactive); in the test with SK-MEL-2, > 100 µM (inactive); with CAKI-1 it was > 100 µM (inactive); in the test on KM12, 48.5 µM (inactive).
As for `CCOC(=O)C(=O)Nc1ccccc1C`, the GI50 in the test with RXF 393, with NCI-H226, with HCT-116, in the test with NCI-H23, in the test on UO-31 and in the test with LOX IMVI was > 100 µM (inactive) throughout. Also, the GI50 is > 100 µM (inactive) in the test on HOP-62; > 100 µM (inactive) in the test on COLO 205; > 100 µM (inactive) with SF-539; > 100 µM (inactive) in the test on OVCAR-4; > 100 µM (inactive) with SF-268; 29.4 µM (inactive) in the test with HL-60. Moreover, the GI50 in the test on SK-MEL-2 and in the test with CAKI-1 was > 100 µM (inactive) in each case.
Take `O=C1Cc2ccccc2N1/N=C\c1ccc([N+](=O)[O-])cc1`: the GI50 in the test with NCI-H226, in the test with HCT-116, in the test on NCI-H23, in the test with UO-31, in the test on LOX IMVI and in the test with HOP-62 was > 100 µM (inactive) throughout. In addition, the GI50 in the test with COLO 205, in the test on SF-539, in the test on OVCAR-4, with SF-268, in the test on SF-295 and in the test on HL-60 was > 100 µM (inactive) throughout. The GI50 in the test with SK-MEL-2, in the test with CAKI-1 and in the test with KM12 was > 100 µM (inactive) throughout.
As to `CC(C)c1ccc(Cc2ccc(C(C)C)c(NC(=O)C(=O)Cc3cnc4ccccc4n3)c2C(C)C)c(C(C)C)c1NC(=O)C(=O)Cc1cnc2ccccc2n1`, the GI50 in the test on HCT-116 is > 100 µM (inactive); in the test with UO-31, 53 µM (inactive); in the test on LOX IMVI it was > 100 µM (inactive); in the test on HOP-62, > 100 µM (inactive); in the test on COLO 205 it was > 100 µM (inactive); with SF-539, > 100 µM (inactive). Also, the GI50 was > 100 µM (inactive) with OVCAR-4; > 100 µM (inactive) in the test with SF-295; > 100 µM (inactive) with HL-60; > 100 µM (inactive) with SK-MEL-2; 98.9 µM (inactive) in the test on CAKI-1; > 100 µM (inactive) in the test on KM12.
With `CC(=O)N1CC2Nc3ccccc3C2CC1CO` (stereo not drawn), the GI50 in the test on RXF 393, with NCI-H226, in the test on HCT-116, in the test with NCI-H23, in the test with UO-31 and in the test with LOX IMVI was > 100 µM (inactive) each time. For the same compound, the GI50 in the test with HOP-62, in the test with COLO 205, with SF-539, in the test on OVCAR-4, in the test with SF-268 and with SF-295 was > 100 µM (inactive) each time. Moreover, the GI50 in the test with HL-60, in the test with SK-MEL-2, in the test on CAKI-1 and in the test with KM12 was > 100 µM (inactive) each time.
As for `CC1(C)Cc2c(oc3ncnc(N)c23)CS1`, the GI50 with NCI-H226 is 89.7 µM (inactive); with HCT-116, > 100 µM (inactive); in the test on NCI-H23, > 100 µM (inactive); in the test with UO-31, 49.2 µM (inactive); in the test on LOX IMVI, > 100 µM (inactive); in the test on HOP-62 it was > 100 µM (inactive). Moreover, the GI50 in the test with COLO 205, with SF-539, in the test on OVCAR-4, with SF-268, in the test with SF-295 and in the test on SK-MEL-2 was > 100 µM (inactive) throughout. Also, the GI50 in the test on CAKI-1, with SR and in the test with KM12 was > 100 µM (inactive) throughout.
Regarding `CCCNC(=O)C1C(=O)C(=O)N(CCC)C1=O` (stereo not drawn), the GI50 in the test on RXF 393, in the test on HCT-116, with NCI-H23, with UO-31, in the test with LOX IMVI and in the test with HOP-62 was > 100 µM (inactive) throughout. The GI50 in the test on COLO 205, in the test on SF-539, in the test with OVCAR-4, in the test on SF-268, in the test on SK-MEL-2 and in the test with CAKI-1 was > 100 µM (inactive) in each case. Moreover, the GI50 in the test with KM12 was > 100 µM (inactive).
As to `O=C(CCC(=O)Nc1cccc(Cl)c1)CC(=O)c1ccc(F)cc1`, the GI50 with NCI-H226, in the test with HCT-116, in the test with NCI-H23, in the test on UO-31, in the test on LOX IMVI and in the test on HOP-62 was > 100 µM (inactive) in each case. Moreover, the GI50 was > 100 µM (inactive) in the test on COLO 205; > 100 µM (inactive) in the test with SF-539; > 100 µM (inactive) with OVCAR-4; > 100 µM (inactive) in the test on SF-268; 23.2 µM (inactive) in the test on SF-295; > 100 µM (inactive) with HL-60. In addition, the GI50 with SK-MEL-2, in the test with CAKI-1, with SR and in the test with KM12 was > 100 µM (inactive) throughout.
In the case of `CCOC(C)OCC#CCCBr` (stereo not drawn), the GI50 with RXF 393, with HCT-116, in the test on NCI-H23, with UO-31, in the test on LOX IMVI and in the test with HOP-62 was > 100 µM (inactive) each time. In addition, the GI50 with COLO 205 was > 100 µM (inactive); with SF-539, > 100 µM (inactive); in the test on OVCAR-4, > 100 µM (inactive); in the test with SF-268, > 100 µM (inactive); in the test on SF-295, > 100 µM (inactive); with HL-60 it was 80.5 µM (inactive). The GI50 with SK-MEL-2, with CAKI-1 and in the test on KM12 was > 100 µM (inactive) each time.
As for `Cc1cccc(N(CC(=O)O)S(=O)(=O)c2ccccc2)c1`, the GI50 with RXF 393, in the test on NCI-H226, in the test with NCI-H23, in the test on UO-31, with LOX IMVI and in the test on COLO 205 was > 100 µM (inactive) throughout. Besides, the GI50 with SF-539, with OVCAR-4, in the test with SF-268, with SF-295, in the test with HL-60 and in the test with SK-MEL-2 was > 100 µM (inactive) throughout. Also, the GI50 in the test with CAKI-1 and in the test with KM12 was > 100 µM (inactive) each time.
